Measured values reported in US20240158348A1, “HERBICIDAL CYCLIC AMIDES N-SUBSTITUTED WITH A HALOALKYLSULFONYLANILIDE GROUP” (FMC Corporation, priority 2021, published 2024).

Columns and labels:
Type in all cases: in vivo
[1] = system: blackgrass (Alopecurus myosuroides); assay: Test A postemergence, blackgrass; details: 0 to 100 scale, 10 days
Source text: (§1) Seeds of plant species selected from barnyardgrass (Echinochloa crus-galli), blackgrass (Alopecurus myosuroides), corn (Zea mays), foxtail, giant (giant foxtail, Setaria faberi), goosegrass (Eleusine indica), kochia (Bassia scoparia), oat, wild (wild oat, Avena fatua), pigweed, palmer (palmer amaranth, Amaranthus palmeri), pigweed, redroot (redroot pigweed, Amaranthus retroflexus), ragweed (common ragweed, Ambrosia artemisiifolia), ryegrass, Italian (Italian ryegrass, Lolium multiflorum), soybean (Glycine max), and wheat (Triticum aestivum) were planted into a blend of loam soil and sand and treated preemergence with a directed soil spray using test chemicals formulated in a non-phytotoxic solvent mixture which included a surfactant.
(§2) At the same time, plants selected from these crop and weed species and also galium (catchweed bedstraw, Galium aparine) and horseweed (Erigeron canadensis) were planted in pots containing the same blend of loam soil and sand and treated with postemergence applications of test chemicals formulated in the same manner. Plants ranged in height from 2 to 10 cm and were in the one- to two-leaf stage for the postemergence treatment. Treated plants and untreated controls were maintained in a greenhouse for 10 days, after which time all treated plants were compared to untreated controls and visually evaluated for injury. Plant response ratings, summarized in Table A, are based on a 0 to 100 scale where 0 is no effect and 100 is complete control. A dash (-) response means no test result.

corn (Zea mays) = assay: Test A postemergence, corn; details: post-emergence, 240 h, 0 to 100 scale, 10 days; for Corn plant response rating (crop injury, 0 = no effect, 100 = complete kill) at 31 g/ha: 31 g ai/ha; for Corn plant response rating (crop injury, 0 = no effect, 100 = complete kill) at 125 g/ha: 125 g ai/ha
Source text: as §1, §2

[2] = system: wheat (Triticum aestivum); assay: Test A postemergence, wheat; details: post-emergence, 240 h, 0 to 100 scale, 10 days, read-out: Plant response rating, Wheat; for plant injury at 31 g/ha: 31 g ai/ha; for plant injury at 125 g/ha: 125 g ai/ha
Source text: as §1, §2

kochia (Bassia scoparia) = assay: Test A postemergence, kochia; details: post-emergence, 240 h, 0 to 100 scale, 10 days, read-out: Plant response rating, Kochia; for pest or weed control at 31 g/ha: 31 g ai/ha; for pest or weed control at 125 g/ha: 125 g ai/ha
Source text: as §1, §2

[3] = system: ryegrass, Italian (Italian ryegrass, Lolium multiflorum); assay: Test A postemergence, Italian ryegrass; details: post-emergence, 240 h, 0 to 100 scale, 10 days, read-out: Plant response rating, Ryegrass, Italian; for pest or weed control at 31 g/ha: 31 g ai/ha; for pest or weed control at 125 g/ha: 125 g ai/ha
Source text: as §1, §2

[4] = system: oat, wild (wild oat, Avena fatua); assay: Test A postemergence, wild oat; details: 0 to 100 scale, 10 days
Source text: as §1, §2

[5] = system: goosegrass (Eleusine indica); assay: Test A preemergence, goosegrass; details: 0 to 100 scale, 10 days
Source text: as §1, §2

[6] = system: horseweed (Erigeron canadensis); assay: Test A postemergence, horseweed; details: 0 to 100 scale, 10 days
Source text: as §1, §2

[7] = system: wheat (Triticum aestivum); assay: Test A preemergence, wheat; details: 0 to 100 scale, 10 days
Source text: as §1, §2

[8] = system: pigweed, palmer (palmer amaranth, Amaranthus palmeri); assay: Test A postemergence, palmer amaranth; details: 0 to 100 scale, 10 days
Source text: as §1, §2

SMILES	Plant response rating, Blackgrass ([1]; 31 g ai/ha)	Plant response rating, Blackgrass ([1]; 125 g ai/ha)	Corn plant response rating (crop injury, 0 = no effect, 100 = complete kill) at 31 g/ha (corn (Zea mays)) [%]	Corn plant response rating (crop injury, 0 = no effect, 100 = complete kill) at 125 g/ha (corn (Zea mays)) [%]	plant injury at 31 g/ha [2] [%]	plant injury at 125 g/ha [2] [%]	pest or weed control at 31 g/ha (kochia (Bassia scoparia)) [%]	pest or weed control at 125 g/ha (kochia (Bassia scoparia)) [%]	pest or weed control at 31 g/ha [3] [%]	pest or weed control at 125 g/ha [3] [%]	Plant response rating, Oat, Wild ([4]; 31 g ai/ha)	Plant response rating, Oat, Wild ([4]; 125 g ai/ha)	Plant response rating, Goosegrass ([5]; 31 g ai/ha)	Plant response rating, Goosegrass ([5]; 125 g ai/ha)	Plant response rating, Horseweed ([6]; 31 g ai/ha)	Plant response rating, Horseweed ([6]; 125 g ai/ha)	Plant response rating, Wheat ([7]; 31 g ai/ha)	Plant response rating, Wheat ([7]; 125 g ai/ha)	Plant response rating, Pigweed, Palmer ([8]; 31 g ai/ha)	Plant response rating, Pigweed, Palmer ([8]; 125 g ai/ha)
C#CCOC1CCN(c2cc(NS(=O)(=O)C(F)(F)F)c(C)cc2C)C1=O (centres unmarked) [Compound 1, N-[2,4-dimethyl-5-[2-oxo-3-(2-propyn-1-yloxy)-1-pyrrolidinyl]phenyl]-1,1,1-trifluoromethanesulfonamide]	10	50	50	90	60	70	30	80	70	70										
C=CCOC1CCN(c2cc(NS(=O)(=O)C(F)(F)F)c(C)cc2C)C1=O (centres unmarked) [Compound 2, N-[2,4-dimethyl-5-[2-oxo-3-(2-propen-1-yloxy)-1-pyrrolidinyl]phenyl]-1,1,1-trifluoromethanesulfonamide]	20	40	0	90	70	70	20	60	70	70										
Cc1cc(C)c(N2CCC(OC3CC3)C2=O)cc1NS(=O)(=O)C(F)(F)F (centres unmarked) [Compound 3, N-[5-[3-(cyclopropyloxy)-2-oxo-1-pyrrolidinyl]-2,4-dimethylphenyl]-1,1,1-trifluoromethanesulfonamide]	40	70	90	90	80	80	50	100	90	90	40	80	70	100	70	90	100	100	40	60
Cc1cc(C)c(N2CCC(OC3CCC3)C2=O)cc1NS(=O)(=O)C(F)(F)F (centres unmarked) [Compound 4, N-[5-[3-(cyclobutyloxy)-2-oxo-1-pyrrolidinyl]-2,4-dimethylphenyl]-1,1,1-trifluoromethanesulfonamide]			90	0	50	50	60	90	80	80	30	60	100	100	90	100	70	100	60	90
Cc1cc(C)c(N(COC(=O)C(C)(C)C)S(=O)(=O)C(F)(F)F)cc1N1CCC(OC2CCCC2)C1=O (centres unmarked) [Compound 5, [[5-[3-(cyclopentyloxy)-2-oxo-1-pyrrolidinyl]-2,4-dimethylphenyl][(trifluoromethyl)sulfonyl]amino]methyl 2,2-dimethylpropanoate]	0	0	0	80	0	50	20	70	20	40	20	30	10	90			0	20	20	70
Cc1cc(C)c(N2CCC(OC3CCCC3)C2=O)cc1NS(=O)(=O)C(F)(F)F (centres unmarked) [Compound 6, N-[5-[3-(cyclopentyloxy)-2-oxo-1-pyrrolidinyl]-2,4-dimethylphenyl]-1,1,1-trifluoromethanesulfonamide]	0	40	0	90	60	60	20	80	0	50	0	20	90	100			80	100	50	60
Cc1cc(C)c(N(COC(=O)C(C)(C)C)S(=O)(=O)C(F)(F)F)cc1N1CCC(OC2CC2)C1=O (centres unmarked) [Compound 7, [[5-[3-(cyclopropyloxy)-2-oxo-1-pyrrolidinyl]-2,4-dimethylphenyl][(trifluoromethyl)sulfonyl]amino]methyl 2,2-dimethylpropanoate]	20	50	90	90	30	60	70	80	50	90	30	70	80	100	80	90	0	80	30	60
Cc1cc(C)c(N(COC(=O)C(C)(C)C)S(=O)(=O)C(F)(F)F)cc1N1CCC(OC2CCC2)C1=O (centres unmarked) [Compound 8, [[5-[3-(cyclobutyloxy)-2-oxo-1-pyrrolidinyl]-2,4-dimethylphenyl][(trifluoromethyl)sulfonyl]amino]methyl 2,2-dimethylpropanoate]	30	40	30	80	60	70	60	80	40	100	10	30	70	100	70	90	0	50	60	90
